In US12186283B2, “Bismuth-thiol compositions and methods of use” (Microbion Corporation, priority 2018, dated 2025):
≈ marks a conversion by molar mass, not a printed value.

Columns and labels:
[1] = system: S. aureus ATCC 29213; experiment: Broth microdilution MIC, ATCC QC organism (Example 12); assay type: cell-based, Staphylococcus aureus; settings: S. aureus ATCC 29213, QC organism
Experimental: The in vitro activity of BisEDT and two additional bismuth-thiol investigational agents (MB-2B and MB-6) was determined for isolates of Escherichia coli, Klebsiella pneumoniae, Pseudomonas aeruginosa and Acinetobacter baumannii characterized for extended-spectrum β-lactamases (ESBL) and/or carbapenem resistance. In addition, vancomycin-intermediate Staphylococcus aureus (VISA) were evaluated. The majority of the isolates tested in the current study were multidrug-resistant (MDR) as defined by resistance to at least three different antibiotic classes. Susceptibility to the investigational compounds and relevant comparators was determined by broth microdilution conducted in accordance with guidelines from the Clinical and Laboratory Standards Institute (CLSI; 2,3).

[2] = system: Escherichia coli; settings: E. coli ATCC 25922, QC organism; cited from earlier work
[3] = system: Pseudomonas aeruginosa; settings: P. aeruginosa ATCC 27853, QC organism; cited from earlier work
[4] = system: S. aureus ATCC 29213; settings: S. aureus ATCC 29213, QC organism; cited from earlier work
[5] = system: Escherichia coli; experiment: Broth microdilution MIC (Example 12)
[6] = system: Klebsiella pneumoniae; experiment: Broth microdilution MIC (Example 12)
[7] = system: Pseudomonas aeruginosa; experiment: Broth microdilution MIC (Example 12)
[8] = system: Acinetobacter baumannii; experiment: Broth microdilution MIC (Example 12)
[9] = system: vancomycin-intermediate Staphylococcus aureus (VISA); experiment: Broth microdilution MIC (Example 12)
[10] = system: Burkholderia spp. (B. cepacia complex); experiment: MIC against CF isolates (Example 5); assay type: cell-based; settings: Table 4A
[11] = system: E. coli ATCC 25922; settings: control strain ATCC 25922 E. coli; per CLSI M100-S24 or provided by Microbion; cited from earlier work
[12] = system: S. aureus ATCC 29213; settings: control strain ATCC 29213 S. aureus; per CLSI M100-S24 or provided by Microbion; cited from earlier work
[13] = Staphylococcus aureus NRS 1 (hVISA)
[14] = Staphylococcus aureus NRS 24 (hVISA)

## C[C@H]1COc2c(N3CCN(C)CC3)c(F)cc3c(=O)c(C(=O)O)cn1c23 [LVX]
[1]
  MIC: 0.06 µg/mL (≈ 0.166 µM)
[2]
  MIC, QC range: (0.008-0.06) μg/mL
[3]
  MIC, QC range: (0.5-4) μg/mL
[4]
  MIC, QC range: (0.06-0.5) μg/mL
[5]; E. coli ATCC 25922, QC organism
  MIC: ≤0.008 µg/mL
[5]; E. coli ATCC 35218, QC organism
  MIC: ≤0.008 µg/mL
[5]; Escherichia coli ATCC 35218, ESBL
  MIC: ≤0.008 µg/mL
[5]; Escherichia coli ATCC BAA-2471, NDM
  MIC: >8 µg/mL
[5]; Escherichia coli CDC 114, ESBL/KPC
  MIC: 4 µg/mL (≈ 11.1 µM)
[5]; Escherichia coli CDC 118, ESBL/NDM
  MIC: 8 µg/mL (≈ 22.1 µM)
[5]; Escherichia coli CDC 435, NDM
  MIC: >8 µg/mL
[5]; Escherichia coli CDC 451, KPC
  MIC: >8 µg/mL
[5]; Escherichia coli CDC 503, ESBL/NDM
  MIC: >8 µg/mL
[5]; Escherichia coli MMX 5745, KPC
  MIC: 8 µg/mL (≈ 22.1 µM)
[5]; Escherichia coli MMX 5755, ESBL
  MIC: 8 µg/mL (≈ 22.1 µM)
[5]; Escherichia coli MMX 5756, ESBL
  MIC: 4 µg/mL (≈ 11.1 µM)
[5]; Escherichia coli MMX 5758, ESBL
  MIC: 8 µg/mL (≈ 22.1 µM)
[6]; K. pneumoniae ATCC BAA-1705, QC organism
  MIC: >8 µg/mL
[6]; Klebsiella pneumoniae ATCC BAA-1705, ESBL/KPC
  MIC: >8 µg/mL
[6]; Klebsiella pneumoniae CDC 112, KPC
  MIC: 4 µg/mL (≈ 11.1 µM)
[6]; Klebsiella pneumoniae CDC 113, ESBL/KPC
  MIC: 4 µg/mL (≈ 11.1 µM)
[6]; Klebsiella pneumoniae CDC 115, ESBL/KPC
  MIC: >8 µg/mL
[6]; Klebsiella pneumoniae CDC 120, ESBL/KPC
  MIC: >8 µg/mL
[6]; Klebsiella pneumoniae CDC 126, ESBL/KPC
  MIC: 0.015 µg/mL (≈ 0.0415 µM)
[6]; Klebsiella pneumoniae CDC 129, ESBL/KPC
  MIC: >8 µg/mL
[6]; Klebsiella pneumoniae CDC 135, ESBL/VIM
  MIC: >8 µg/mL
[6]; Klebsiella pneumoniae CDC 138, ESBL/NDM
  MIC: >8 µg/mL
[6]; Klebsiella pneumoniae CDC 158, ESBL/NDM/OXA
  MIC: 4 µg/mL (≈ 11.1 µM)
[6]; Klebsiella pneumoniae MMX 9029, ESBL
  MIC: 0.12 µg/mL (≈ 0.332 µM)
[7]; P. aeruginosa ATCC 27853, QC organism
  MIC: 0.5 µg/mL (≈ 1.38 µM)
[7]; Pseudomonas aeruginosa CDC 230, VIM/OXA
  MIC: 8 µg/mL (≈ 22.1 µM)
[7]; Pseudomonas aeruginosa CDC 231, KPC/OXA
  MIC: >8 µg/mL
[7]; Pseudomonas aeruginosa CDC 241, IMP/OXA
  MIC: 8 µg/mL (≈ 22.1 µM)
[7]; Pseudomonas aeruginosa CDC 246, NDM/OXA
  MIC: >8 µg/mL
[7]; Pseudomonas aeruginosa CDC 250, NDM/OXA
  MIC: >8 µg/mL
[7]; Pseudomonas aeruginosa CDC 356, KPC
  MIC: 0.12 µg/mL (≈ 0.332 µM)
[7]; Pseudomonas aeruginosa CDC 439, IMP
  MIC: 8 µg/mL (≈ 22.1 µM)
[7]; Pseudomonas aeruginosa CDC 444, VIM
  MIC: 8 µg/mL (≈ 22.1 µM)
[7]; Pseudomonas aeruginosa CDC 457, VIM
  MIC: >8 µg/mL
[7]; Pseudomonas aeruginosa CDC 516, KPC/AmpC
  MIC: 0.25 µg/mL (≈ 0.692 µM)
[7]; Pseudomonas aeruginosa CDC 518, KPC/AmpC
  MIC: >8 µg/mL
[8]; Acinetobacter baumannii CDC 273, ESBL/OXA
  MIC: >8 µg/mL
[8]; Acinetobacter baumannii CDC 274, ESBL/OXA
  MIC: 8 µg/mL (≈ 22.1 µM)
[8]; Acinetobacter baumannii CDC 275, ESBL/OXA
  MIC: 4 µg/mL (≈ 11.1 µM)
[8]; Acinetobacter baumannii CDC 277, ESBL/OXA
  MIC: 8 µg/mL (≈ 22.1 µM)
[8]; Acinetobacter baumannii CDC 284, ESBL/OXA
  MIC: 8 µg/mL (≈ 22.1 µM)
[8]; Acinetobacter baumannii CDC 307, OXA
  MIC: 8 µg/mL (≈ 22.1 µM)
[8]; Acinetobacter baumannii CDC 308, ESBL/OXA
  MIC: 4 µg/mL (≈ 11.1 µM)
[8]; Acinetobacter baumannii CDC 311, OXA
  MIC: 2 µg/mL (≈ 5.53 µM)
[8]; Acinetobacter baumannii CDC 312, OXA
  MIC: 2 µg/mL (≈ 5.53 µM)
[8]; Acinetobacter baumannii CDC 313, ESBL/OXA
  MIC: 2 µg/mL (≈ 5.53 µM)
[8]; Acinetobacter baumannii NCTC 13304, OXA
  MIC: 1 µg/mL (≈ 2.77 µM)
[9]; [13]
  MIC: 4 µg/mL (≈ 11.1 µM)
[9]; Staphylococcus aureus NRS 2
  MIC: 4 µg/mL (≈ 11.1 µM)
[9]; Staphylococcus aureus NRS 3
  MIC: >8 µg/mL
[9]; Staphylococcus aureus NRS 4
  MIC: 4 µg/mL (≈ 11.1 µM)
[9]; Staphylococcus aureus NRS 13
  MIC: 0.12 µg/mL (≈ 0.332 µM)
[9]; Staphylococcus aureus NRS 18
  MIC: 4 µg/mL (≈ 11.1 µM)
[9]; Staphylococcus aureus NRS 22
  MIC: 8 µg/mL (≈ 22.1 µM)
[9]; [14]
  MIC: >8 µg/mL
[9]; Staphylococcus aureus NRS 27
  MIC: 8 µg/mL (≈ 22.1 µM)

## NCC[C@H](O)C(=O)N[C@@H]1C[C@H](N)[C@@H](O[C@H]2O[C@H](CN)[C@@H](O)[C@H](O)[C@H]2O)[C@H](O)[C@H]1O[C@H]1O[C@H](CO)[C@@H](O)[C@H](N)[C@H]1O [Amikacin]
[10]; strain AU197, B. cenocepacia (B cepacia complex)
  MIC: > 64 µg/mL
[10]; strain BC5b, B. multivorans (B cepacia complex)
  MIC: > 64 µg/mL
[10]; strain BC15, B. cenocepacia (B cepacia complex)
  MIC: > 64 µg/mL
[10]; strain BC17, B. cepacia (B cepacia complex)
  MIC: > 64 µg/mL
[11]
  Expected MIC: acceptable range: 0.5 to 4 µg/mL
  Expected MIC: goal: 1 to 2 µg/mL
[12]
  Expected MIC: acceptable range: 1 to 4 µg/mL
  Expected MIC: goal: 2 µg/mL

## CCCCCCCCCC(=O)NC(Cc1c[nH]c2ccccc12)C(=O)NC(CC(N)=O)C(=O)NC(CC(=O)O)C(=O)NC1C(=O)NCC(=O)NC(CCCN)C(=O)NC(CC(=O)O)C(=O)NC(C)C(=O)NC(CC(=O)O)C(=O)NCC(=O)NC(CO)C(=O)NC(C(C)CC(=O)O)C(=O)NC(CC(=O)c2ccccc2N)C(=O)OC1C (centres unmarked) [DAP]
[1]
  MIC: 0.5 µg/mL (≈ 0.309 µM)
[4]
  MIC, QC range: (0.12-1) μg/mL
[9]; [13]
  MIC: 1 µg/mL (≈ 0.617 µM)
[9]; Staphylococcus aureus NRS 2
  MIC: 0.25 µg/mL (≈ 0.154 µM)
[9]; Staphylococcus aureus NRS 3
  MIC: 1 µg/mL (≈ 0.617 µM)
[9]; Staphylococcus aureus NRS 4
  MIC: 0.5 µg/mL (≈ 0.309 µM)
[9]; Staphylococcus aureus NRS 13
  MIC: 2 µg/mL (≈ 1.23 µM)
[9]; Staphylococcus aureus NRS 18
  MIC: 0.5 µg/mL (≈ 0.309 µM)
[9]; Staphylococcus aureus NRS 22
  MIC: 2 µg/mL (≈ 1.23 µM)
[9]; [14]
  MIC: 0.5 µg/mL (≈ 0.309 µM)
[9]; Staphylococcus aureus NRS 27
  MIC: 0.25 µg/mL (≈ 0.154 µM)
